Measurements from the METLIN SMRT retention time set (Domingo-Almenara et al. 2019).

Assay: gradient 5% acetonitrile 3 min, to 50% in 2 min, to 85% in 15 min, held 3 min, 100 µL/min
Conditions: column: Zorbax Extend-C18 2.1 x 50 mm; eluents: water / acetonitrile, 0.1% formic acid
Method in brief: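 The system's dead and dwell volumes were 40 μL and 900 μL, with a Zorbax Extend-C18 column (2.1 × 50 mm, 1.8 μm) run at 100 μL/min in water and acetonitrile containing 0.1% formic acid each. Pure standards were analyzed in mixtures of ~100 molecules by HPLC–quadrupole time-of-flight mass spectrometry in positive and negative ionization mode. Retention time was assigned from computationally picked, manually inspected adduct peaks.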

| SMILES | RP-LC retention time |
| --- | --- |
| O=C(c1ccc(OCC2CCCN(C(=O)c3ccc(F)cc3)C2)cc1)N1CCOCC1 (configuration not stated) | 769 s |
| COC(=O)c1ccc(NS(=O)(=O)c2cc(-c3c(C)noc3NC(C)=O)ccc2OC)cc1 | 720 s |
| CCSc1nnc(-c2nn(C)c3c2CN(C(=O)c2cc(C)ccc2C)CC3)n1C | 811 s |
| Cc1nnc(-c2ccc3ccn(CC(=O)N4CCN(c5ncccn5)CC4)c3c2)o1 | 692 s |
| O=C(NCCn1ncccc1=O)c1csc(-c2ccccc2)n1 | 648 s |
| O=C(NCCC1CCN(C(=O)Nc2ccc(F)cc2F)CC1)c1ccco1 | 700 s |
| COC(=O)C1=CN(c2ccc(F)cc2C)c2ccc(F)cc2S1(=O)=O | 920 s |
| CC(C)c1ccc(-c2nc(-c3cccc(-c4ccnn4C)c3)no2)cc1 | 1390 s |
| O=C(c1ccc(Cl)cc1Cl)N1CCN(c2cc(-c3cccs3)[nH]n2)CC1 | 888 s |
| O=C1C(O)C2(CCCCC2)N1C1CCN(Cc2ccc(F)c(F)c2)CC1 (configuration not stated) | 548 s |
| CC(C)c1ccc(NC(=O)C2CCCN(c3cc(=O)n(C)c(=O)n3C)C2)cc1 (configuration not stated) | 829 s |
| COc1ccc(-c2nc(CN3CCCC3=O)no2)cc1 | 735 s |
| CCc1ccc(CNC(=O)C2CCN(c3cncnc3N3CCN(C)CC3)CC2)cc1 | 588 s |
| O=C(NCc1csc(C2CCN(C(=O)COc3ccccc3)CC2)n1)C1CC1 | 701 s |
| Cc1ccc2c(Nc3cccc(C(C)C)c3)c(C(=O)N3CCCCC3C)cnc2n1 (configuration not stated) | 720 s |
| Cn1ccc2c(cc(C(=O)NCc3ccc4c(c3)OCO4)n2C)c1=O | 660 s |
| O=C(CN1CC=C(c2cnn(-c3ccc(F)cc3)c2)CC1)NC1CCCCC1 | 695 s |
| Cc1c(Cl)cccc1Nc1ccccc1C(=O)O | 1060 s |
| O=C([C@@H]1C[C@H](Oc2ccccc2)CN1C1CCOCC1)N1CCc2ccccc21 | 709 s |
| Cc1ccccc1OCC(=O)N1CCCC(COCc2ccccc2)C1 (configuration not stated) | 1030 s |
| CCN1C(=O)C2(CCN(S(=O)(=O)c3c(C)noc3C)CC2)c2ccccc21 | 731 s |
| Cc1ccc(CC(=O)NC2CCN(c3cc(-c4ccc(Cl)cc4)[nH]n3)C2)cc1 (configuration not stated) | 807 s |
| COc1ccc(-c2noc(C3CCCN3C(=O)c3cc(OC)c(OC)c(OC)c3)n2)cc1OC (configuration not stated) | 828 s |

| SMILES | RP-LC retention time |
| --- | --- |
| CN1C(=O)c2cccnc2Sc2cc(C(=O)NC3CCCCC3)ccc21 | 773 s |
| O=C1CC(NC(=O)C2(c3ccc(Cl)cc3)CCCC2)CN1 (configuration not stated) | 678 s |
| COc1cc(=O)c(C(N)=O)nn1-c1ccc(C)cc1 | 612 s |
| O=C(Cn1nc(C(=O)N2CCOCC2)c2ccccc21)Nc1cccc(Cl)c1 | 816 s |
| Cc1ccc(NC(=O)N2CCc3c(c(-c4nnc(-c5ccc(F)cc5)o4)nn3C)C2)cc1C | 943 s |
| O=C(NCC1CCCO1)C(=O)Nc1ccc(OC(F)(F)F)cc1 (configuration not stated) | 834 s |
| NC(=O)c1nnn(Cc2ccccc2F)c1N | 596 s |
| CC(C)Oc1ccc(-c2noc(Cn3cnc4c(oc5ccccc54)c3=O)n2)cc1 | 1060 s |
| CCSc1nc2ccc(NS(=O)(=O)c3ccc4c(c3)CCC4)cc2s1 | 1110 s |
| CCCCS(=O)(=O)c1cc2c(cc1NC(=O)c1ccccc1C)n(C)c(=O)n2C | 853 s |
| O=C(c1ccsc1)N1[C@H]2CC[C@@H]1c1cnc(-c3ccccc3)nc1C2 | 886 s |
| Cn1nc(C(=O)N2CCCC(C(=O)Nc3ccccc3)C2)c2c1CCN(C(=O)C1CCCCC1)C2 (configuration not stated) | 796 s |
| CCc1nnc(C2CN(C)CC23CCN(S(=O)(=O)c2ccc(F)c(C)c2)CC3)o1 (configuration not stated) | 634 s |
| O=C(C1CCCCCC1)N1CCC2(CC1)CC(O)CCO2 (configuration not stated) | 681 s |
| CCN1C(=O)c2cc(S(=O)(=O)Nc3ccc(C)c(C)c3)ccc2Oc2cccnc21 | 986 s |
| Cc1ccc(NC(=O)Nc2ccc3nc(N4CCN(C)CC4)cc(C)c3c2)c([N+](=O)[O-])c1 | 624 s |
| O=C(Cc1nnc(-c2ccc3ncccc3c2)o1)Nc1ccc(F)c(F)c1 | 741 s |
| COc1cc(-c2nc3ccc(Cl)cn3c2Nc2ccc3c(c2)OCCO3)ccc1O | 680 s |
| Cc1ccc2snc(C(=O)NC(C)C)c2c1 | 986 s |
| CCCCn1c(=O)c2ccccc2n(Cc2nc(-c3ccc(Cl)cc3)no2)c1=O | 1280 s |
| Cc1csc(-c2csc(S(=O)(=O)NCc3cccs3)c2)n1 | 907 s |
| COc1ccc(CCN2CC(=O)N3Cc4[nH]c5ccccc5c4C[C@H]3C2=O)cc1OC | 761 s |
| Cc1ccc(C)c(NC(=O)N2CCC(N3CCN(Cc4ccccc4)C(=O)C3=O)CC2)c1 | 740 s |

| SMILES | RP-LC retention time |
| --- | --- |
| O=C(Nc1nc(CC(=O)N2CCN(c3ncccn3)CC2)cs1)C1CCCC1 | 669 s |
| Cc1ccc(-c2csc(NC(=O)CSc3nc4c(cc3C#N)C(=O)CCC4)n2)cc1 | 583 s |
| COc1ccc(-c2ccc(N3CCCC(C(=O)NCc4cccs4)C3)nn2)cc1 (configuration not stated) | 613 s |
| CN(C)CCCNC(=O)C1CCN(c2nc3ccc(-c4cccnc4)nc3s2)CC1 | 543 s |
| O=S(=O)(c1cccn2c(SCc3cccc(Br)c3)nnc12)N1CCCCC1 | 930 s |
| Cc1ccc(-c2noc(-c3ccccc3S(=O)(=O)NC3CCCC3)n2)cc1 | 1300 s |
| CC(=O)N[C@@H]1CN(C(=O)c2cc(Cl)ccc2F)C[C@H]1CO | 608 s |
| O=S(=O)(c1ccc(Br)s1)N1CCN(S(=O)(=O)C2CC2)CC1 | 854 s |
| Cc1cc(N2CCCCC2)nc(N2CCN(C(=O)C3CCCC3)CC2)n1 | 713 s |
| COc1ccc(NC(=O)C2CCCN(c3ncnc4c3nc3n4CCCCC3)C2)cc1 (configuration not stated) | 753 s |
| CCCC(=O)N1CCCN(C2=NS(=O)(=O)C(c3ccc(F)cc3)=C2C)CC1 | 780 s |
| COC(=O)CNC(=O)NC(Cc1ccccc1)Cc1ccc2c(c1)OCO2 (configuration not stated) | 810 s |
| Cc1csc(-c2cc(S(=O)(=O)Nc3ccc(F)cc3Cl)c(C)s2)n1 | 1040 s |
| COc1ccc(CN(Cc2ccccc2)Cc2cc(=O)n3ccc(C)cc3n2)cc1 | 681 s |
| CCc1nc2cc(N3CCC(C(=O)NC(C)c4ccccc4)CC3)cnc2nc1CC (configuration not stated) | 837 s |
| CCCCn1c(N)c(C(=O)OCC)c2nc3ccccc3nc21 | 613 s |
| O=S(=O)(NC1CCCC1)c1ccc(-c2cc(C(F)(F)F)on2)o1 | 1060 s |
| O=C(CSc1nnc2c3sc(N4CCCC4)nc3ncn12)N1CCN(c2ccc(F)cc2)CC1 | 834 s |
| O=C(C1CCN(c2nc3ccc(-c4cccnc4)nc3s2)CC1)N1CCOCC1 | 592 s |
| CCc1c(C)nc2ncnn2c1NC(C)C | 670 s |
| O=S(=O)(c1ccc(-c2nnc(C3CC3)o2)o1)N1CCCCC1 | 853 s |
